Measurements from article PMC8776894 (Communications Biology, 2022).

How the values were obtained:
brain of MCAO mice = assay: Fluorescence imaging of FITC-labeled VK in brain of stroke mice; format: in vivo, mouse; conditions: stroke mice, brains collected at 0, 30, 60, 90, 120 min, confocal microscopy of sections
Experimental: A successful MCAO model was established and these mice were used for subsequent experiments. Immediately after surgery, FITC or FITC-labeled VK were administered intravenously and mice were killed after 30 min to isolate the brain and imaged by an imaging system (IVIS Lumina II). For fluorescent imaging, the brain was immediately collected and kept in the dark for 0, 30, 60, and 90 min after the administration of VK. Frozen sections were prepared according to the above method (seen Morphological Assessment). Images were acquired by confocal microscopy (FV1000 MPE-B, Olympus).

[1] = test system: HT22 hippocampal neuron cells (OGD/R); assay: Live-cell imaging of FITC-labeled VK; format: cell-based, mouse; conditions: HT22 cells after OGD/R, 7.35 µM (b12; method b96: 100 nM), 37 °C, confocal fluorescence
Experimental: VK (Gly–Arg–Pro–Hyp–[…]NH2) was labeled with FITC in the N-terminus. VK (100 nM) was added to each well and, after 15 min of incubation at 37 °C, live-cell images were acquired and processed by confocal microscopy (Zeiss LSM 880). Live-cell images were recorded for 90 min. The negative group was FITC treated without labeled VK.
After 24 h, medium in the transwell
Cell cultures, treatment, and OGD.
Experiments were divided into the four

MCAO/R mice [2] = assay: Evans blue extravasation, BBB permeability; format: in vivo, mouse; conditions: VK 300 µg/kg
AKT phosphorylation = assay: p-AKT immunoblot under OGD/R with HOE140; format: cell-based; conditions: HOE140 100 nM, VK 0.0735, 0.735, 7.35 µM
Text: (5 pictures or pasted objects on this page, not shown here)

MCAO/R mice [3] = conditions: mouse, in vivo
rats = conditions: BK after transient forebrain ischemia in rats; ref not given; cited from earlier work
Experimental: After the onset of cerebral ischemia stroke, ATP levels expeditiously decline during the first 5 min and fall to ~15–30% of the ATP concentration measured in the non-ischemic hemisphere over the first 2 h after ischemia onset. In the present study, VK therapy partially recovered energy metabolism in the ischemic hemisphere as determined by the detection of ATP and LD content. Furthermore, to illustrate the effect of VK on energy metabolism in neurons, the glycolysis and oxidative phosphorylation pathways in neurons were also evaluated by Seahorse after stroke. Increasing evidence indicates tha ...

Compound: CC[C@H](C)[C@H](NC(=O)[C@H](CCCNC(=N)N)NC(=O)[C@H](Cc1ccccc1)NC(=O)[C@@H]1CCCN1C(=O)[C@H](CO)NC(=O)[C@H](Cc1ccccc1)NC(=O)CNC(=O)[C@@H]1C[C@@H](O)CN1C(=O)[C@@H]1CCCN1C(=O)[C@H](CCCNC(=N)N)NC(=O)CNC(=S)Nc1ccc2c(c1)C(=O)OC21c2ccc(O)cc2Oc2cc(O)ccc21)C(=O)N[C@@H](CC(=O)O)C(N)=O [FITC-labeled VK]
- distribution in brain regions (brain of MCAO mice): seen in the cortex, hippocampus, and striatum
- crossing of the cell membrane, live-cell imaging [1]: partially crossed the cell membrane

Compound: HOE140
- BBB integrity under combined administration of VK and HOE140, EB extravasation (MCAO/R mice [2]): damaged the BBB integrity
- VK-mediated AKT activation (AKT phosphorylation): inhibit VK-mediated AKT activation
- major pharmacological effects of VK under HOE140 preconditioning (MCAO/R mice [3]): blocked

Compound: bradykinin (RPPGFSPFR; Bradykinin; UniProt P01042 381-389, looked up) [BK, endogenous peptide]
- neuroprotection (rats): 97%

Compound: Lys-(des-Arg9-Leu8)-BK [reference compound]
- functional injury under combination of VK and B1R antagonist (MCAO/R mice [3]): improved functional injury
